In US11572590B2, “Methods for evaluating tumor cell spheroids using 3D microfluidic cell culture device” (Dana-Farber Cancer Institute, Inc., priority 2017, dated 2023):
Where two headings read alike, the source gives them in different places.

Assays:
Test in all cases: SelectScreen Kinase Profiling, single point inhibition and IC50 for off-target kinases
Assay type in all cases: biochemical
off-target kinases [1] = molecular target: off-target kinases (Homo sapiens, UniProt P11362, V561M); conditions: FGFR1 V561M, mutant y, LanthaScreen Binding
off-target kinases (Homo sapiens, UniProt P11362, V561M), sequence (P11362 22-822 V561M): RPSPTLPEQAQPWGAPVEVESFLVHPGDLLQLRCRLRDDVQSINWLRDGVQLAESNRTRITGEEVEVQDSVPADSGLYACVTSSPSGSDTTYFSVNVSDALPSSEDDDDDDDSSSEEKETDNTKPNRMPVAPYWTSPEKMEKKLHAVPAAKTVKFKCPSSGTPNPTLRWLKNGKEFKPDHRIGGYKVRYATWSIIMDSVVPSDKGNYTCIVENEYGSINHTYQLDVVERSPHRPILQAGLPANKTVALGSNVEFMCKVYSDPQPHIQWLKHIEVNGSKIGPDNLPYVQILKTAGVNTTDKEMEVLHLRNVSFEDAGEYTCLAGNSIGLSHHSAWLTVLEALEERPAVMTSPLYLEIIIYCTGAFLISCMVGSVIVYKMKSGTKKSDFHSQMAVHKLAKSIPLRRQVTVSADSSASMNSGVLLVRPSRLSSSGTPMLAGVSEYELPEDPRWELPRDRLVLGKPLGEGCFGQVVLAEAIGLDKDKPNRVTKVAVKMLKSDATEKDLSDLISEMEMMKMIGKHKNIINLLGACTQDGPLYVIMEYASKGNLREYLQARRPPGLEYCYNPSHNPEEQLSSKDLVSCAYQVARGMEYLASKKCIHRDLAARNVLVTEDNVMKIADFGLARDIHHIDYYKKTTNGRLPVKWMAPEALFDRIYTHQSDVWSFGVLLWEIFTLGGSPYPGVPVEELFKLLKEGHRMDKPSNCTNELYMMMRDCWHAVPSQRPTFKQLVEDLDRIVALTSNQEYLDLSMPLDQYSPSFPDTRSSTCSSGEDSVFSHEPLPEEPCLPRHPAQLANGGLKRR

off-target kinases [2] = molecular target: T1, off-target kinases (Homo sapiens, UniProt P21709); conditions: EPHA1, ZLYTE, ATP Km app
T1 sequence (P21709 26-976): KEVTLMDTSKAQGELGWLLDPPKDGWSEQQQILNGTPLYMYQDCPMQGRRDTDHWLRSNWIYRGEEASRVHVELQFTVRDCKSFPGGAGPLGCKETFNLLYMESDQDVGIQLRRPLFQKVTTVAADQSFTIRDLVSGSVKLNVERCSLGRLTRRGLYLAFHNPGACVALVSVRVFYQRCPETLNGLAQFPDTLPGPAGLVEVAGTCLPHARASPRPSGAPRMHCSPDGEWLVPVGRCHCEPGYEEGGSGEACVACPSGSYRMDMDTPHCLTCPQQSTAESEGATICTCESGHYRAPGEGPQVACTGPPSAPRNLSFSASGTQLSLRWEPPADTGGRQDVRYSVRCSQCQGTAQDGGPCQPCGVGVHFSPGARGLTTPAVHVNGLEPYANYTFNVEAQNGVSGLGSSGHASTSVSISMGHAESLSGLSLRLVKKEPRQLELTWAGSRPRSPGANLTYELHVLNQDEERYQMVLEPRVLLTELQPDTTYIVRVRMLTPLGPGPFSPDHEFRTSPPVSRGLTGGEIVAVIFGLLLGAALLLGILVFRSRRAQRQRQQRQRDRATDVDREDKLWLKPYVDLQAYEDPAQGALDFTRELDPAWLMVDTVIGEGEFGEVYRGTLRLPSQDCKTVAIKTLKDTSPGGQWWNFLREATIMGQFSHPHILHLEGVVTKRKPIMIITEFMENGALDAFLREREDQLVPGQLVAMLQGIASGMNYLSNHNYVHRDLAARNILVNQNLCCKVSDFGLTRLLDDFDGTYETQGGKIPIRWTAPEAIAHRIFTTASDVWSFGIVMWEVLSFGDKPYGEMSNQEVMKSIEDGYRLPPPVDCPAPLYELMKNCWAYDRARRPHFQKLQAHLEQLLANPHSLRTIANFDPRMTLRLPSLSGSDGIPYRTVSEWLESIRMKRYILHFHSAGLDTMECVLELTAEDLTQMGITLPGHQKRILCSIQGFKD

off-target kinases [3] = molecular target: off-target kinases (Homo sapiens, UniProt P42336); conditions: PIK3CA/PIK3R1 (p110 alpha/p85 alpha); Cmpd1 1000 μM; ATP Km app; Adapta
off-target kinases (Homo sapiens, UniProt P42336), sequence (P42336 whole entry): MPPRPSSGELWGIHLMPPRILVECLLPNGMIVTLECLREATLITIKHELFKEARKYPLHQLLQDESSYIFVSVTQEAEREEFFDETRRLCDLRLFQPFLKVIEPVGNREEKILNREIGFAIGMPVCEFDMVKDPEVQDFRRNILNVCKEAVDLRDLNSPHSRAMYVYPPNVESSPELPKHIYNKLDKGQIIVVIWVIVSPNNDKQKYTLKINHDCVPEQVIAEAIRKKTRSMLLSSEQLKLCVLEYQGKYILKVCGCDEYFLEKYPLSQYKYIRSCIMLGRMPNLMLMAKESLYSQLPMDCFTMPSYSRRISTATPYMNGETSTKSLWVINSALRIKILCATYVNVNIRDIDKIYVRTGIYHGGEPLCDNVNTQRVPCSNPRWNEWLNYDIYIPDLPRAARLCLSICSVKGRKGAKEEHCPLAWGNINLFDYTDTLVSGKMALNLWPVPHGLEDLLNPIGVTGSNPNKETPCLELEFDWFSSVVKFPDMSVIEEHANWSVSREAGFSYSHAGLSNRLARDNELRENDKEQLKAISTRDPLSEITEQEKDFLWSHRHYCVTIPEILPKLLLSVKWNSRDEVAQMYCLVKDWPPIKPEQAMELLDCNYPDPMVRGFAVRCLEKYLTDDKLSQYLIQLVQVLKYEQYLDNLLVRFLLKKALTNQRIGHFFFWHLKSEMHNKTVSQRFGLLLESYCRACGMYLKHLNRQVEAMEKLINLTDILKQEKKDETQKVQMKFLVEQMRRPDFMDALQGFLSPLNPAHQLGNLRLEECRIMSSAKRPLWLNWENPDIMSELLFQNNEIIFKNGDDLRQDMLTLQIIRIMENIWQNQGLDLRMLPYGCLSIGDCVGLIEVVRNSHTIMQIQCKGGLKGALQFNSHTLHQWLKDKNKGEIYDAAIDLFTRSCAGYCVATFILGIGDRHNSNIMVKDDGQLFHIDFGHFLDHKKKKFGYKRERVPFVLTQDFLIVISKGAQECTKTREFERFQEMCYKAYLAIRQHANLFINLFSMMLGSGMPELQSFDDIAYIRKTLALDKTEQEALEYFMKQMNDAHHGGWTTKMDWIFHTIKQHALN

off-target kinases [4] = molecular target: T2, off-target kinases (Homo sapiens, UniProt Q9UPZ9); conditions: ICK, LanthaScreen Binding
T2 sequence (Q9UPZ9 1-632): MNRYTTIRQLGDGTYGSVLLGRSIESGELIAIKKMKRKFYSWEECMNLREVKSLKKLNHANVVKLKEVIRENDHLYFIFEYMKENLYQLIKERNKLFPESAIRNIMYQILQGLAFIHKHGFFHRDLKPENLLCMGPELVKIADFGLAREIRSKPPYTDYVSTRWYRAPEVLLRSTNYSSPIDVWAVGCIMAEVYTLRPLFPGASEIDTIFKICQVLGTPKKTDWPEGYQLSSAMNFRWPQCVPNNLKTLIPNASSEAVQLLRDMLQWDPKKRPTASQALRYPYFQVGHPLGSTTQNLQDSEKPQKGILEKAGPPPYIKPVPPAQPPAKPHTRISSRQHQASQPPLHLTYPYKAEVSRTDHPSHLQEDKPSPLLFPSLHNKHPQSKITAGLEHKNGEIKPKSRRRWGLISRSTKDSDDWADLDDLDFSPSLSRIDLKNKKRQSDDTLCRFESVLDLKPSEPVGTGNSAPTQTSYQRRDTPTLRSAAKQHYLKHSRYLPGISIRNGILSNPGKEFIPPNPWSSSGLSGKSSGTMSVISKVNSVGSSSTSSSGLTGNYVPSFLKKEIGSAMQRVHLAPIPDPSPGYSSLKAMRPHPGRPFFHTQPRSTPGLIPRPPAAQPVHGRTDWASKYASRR

N#Cc1cc(-c2ncnc(Nc3ccc(N4CCN(C5COC5)CC4)cc3)n2)ccc1OC1CCOCC1 [Compound 1, 5-(4-((4-(4-(oxetan-3-yl)piperazin-1-yl)phenyl)amino)-1,3,5-triazin-2-yl)-2-((tetrahydro-2H-pyran-4-yl)oxy)benzonitrile] was tested, and the inhibition (off-target kinases [1]; read-out: % Inhibition 1) was 20%, the inhibition (off-target kinases [1]; read-out: % Inhibition 2) was 25% and the inhibition (off-target kinases [1]; read-out: % Inhibition Avg) was 23%. It also gave an inhibition (off-target kinases [2]; read-out: % Inhibition 1) of 29%, an inhibition (off-target kinases [2]; read-out: % Inhibition 2) of 24% and an inhibition (off-target kinases [2]; read-out: % Inhibition Avg) of 27%. The “% Inhibition 1” value (off-target kinases [3]) was −5%, the “% Inhibition 2” value (off-target kinases [3]) was −4% and the “% Inhibition Avg” value (off-target kinases [3]) was −5%. The inhibition (off-target kinases [4]; read-out: % Inhibition 1) was 22%, the inhibition (off-target kinases [4]; read-out: % Inhibition 2) was 22% and the inhibition (off-target kinases [4]; read-out: % Inhibition Avg) was 22%.
